Assay results as given in ChEMBL document CHEMBL4706505, “F10, a new camptothecin derivative, was identified as a new orally-bioavailable, potent antitumor agent” (Eur J Med Chem, 2020).

Key:
[1] = Toxicity in NPG mouse xenografted with human Raji cells assessed as body weight loss at 4 mg/kg, ig measured on the 1 day; format: organism-based; conditions: in vivo, po, 24 h
[2] = Half life in nude BALB/c mouse serum at 8.0 mg/kg incubated up to 9 hrs, iv administered […] by LC-MS/MS analysis; format: ADME, organism-based
HCT-116 [3] = assay: Antitumor activity against human HCT-116 cells xenografted in nude BALB/c mouse assessed as tumor growth inhibition at 1 mg/kg, ip dosed once the other day for 24 days; format: functional; conditions: HCT-116, ip, 576 h, time 24 day, read-out: TGI
HCT-116 [4] = assay: Antitumor activity against human HCT-116 cells xenografted in nude BALB/c mouse assessed as tumor growth inhibition at 0.5 mg/kg, po dosed once the other day for 12 times upto 24 days; format: functional; conditions: HCT-116, po, 576 h, time day <=24, read-out: TGI
[5] = Toxicity in Kunming mouse assessed as mortality at 250 mg/kg, po measured once every 30 mins upto 10 days; format: organism-based; conditions: in vivo, 0.5 h
Raji = assay: Antitumor activity against NPG mouse xenografted with human Raji cell assessed as decrease in tumor volume at 8 mg/kg, ig measured on the 1 day; format: functional

## CCc1c2c(nc3ccc(OCC(=O)N4CCCCC4)cc13)-c1cc3c(c(=O)n1C2)COC(=O)[C@]3(O)CC
[1]
  Activity: 25.4 g
[2]
  half-life: 1.03 h
HCT-116 [3]
  inhibition in vivo at 1 mg/kg: 90.2%
HCT-116 [4]
  inhibition in vivo at 0.5 mg/kg: 48.1%
[5]
  Activity: Non-Toxic
Raji
  Activity: 956 mm3
